Reference: US20150297609A1, “STERILE OPHTHALMIC PHARMACEUTICAL SUSPENSIONS” (SENTISS PHARMA PVT. LTD., priority 2012, published 2015)

Assay: Particle size analysis of brinzolamide precipitated after autoclaving
Type: physicochemical
Conditions: precipitated during cooling after autoclaving, before size reduction
Source text: The precipitated brinzolamide is preferably in partially amorphous or crystalline form, preferably in crystalline form, more preferably in highly crystalline form. The particles are preferably in the form of fine particles. More preferably the fine particulate has an average particle size of less than 100 μm, more preferably less than 50 μm. The particle size can be reduced further by sonication to an average particle size less than […], more preferably less than 30 pm or 20 pm. Any method can be used to determine particle size distribution. One preferred method is to use a light scattering or Coulter counter method. It is preferred that 90% of the particles (D(0.9)) be less than 15 pm, more preferably, D(0.9) is in the range of 10-15 pm. It is preferred that 100% of the particles (D(1)) be less than 30 pm, more preferably less than about 20 pm.
During autoclaving due to high temperature and pressure, brinzolamide goes in solution. Upon completion of the autoclave cycle, during cooling, brinzolamide starts precipitating out. Brinzolamide forms needle shaped crystals of 1000 to 3000 microns. These needle shaped crystals of brinzolamide are further reduced in fine crystalline form to be used in the present invention formulation and the reduced particle size is as per table 3.
This particle size is further reduced to […] through rapid cooling with stirring. […]

size of needle shaped crystals: 1000 to 3000 microns
Compound: CCN[C@H]1CN(CCCOC)S(=O)(=O)c2sc(S(N)(=O)=O)cc21 [API, (R)-(+)-4-ethylamino-2-(3-methoxypropyl)-3,4-dihydro-2H-thieno[3,2-e]-1,2-thiazine-6-sulfonamide-1,1-dioxide]
